Source: US9187459B2, “Quinazoline-7-ether compounds and methods of use” (NewGen Therapeutics, Inc., priority 2011, dated 2015)
pIC50: −log10 of the molar value.

Tests used:
[1] = target: ErbB2 (HER2) (Homo sapiens (Human), UniProt P04626); assay: Kinase inhibition assay (TR-FRET, LanthaScreen), ErbB2 (HER2); format: biochemical; conditions: ATP 1 mM
Experimental: 1) The compound is dissolved in DMSO to prepare a 10 mM solution, and was diluted to 100 micoM with water. […] Kinase activity was determined with time-resolved Fret (TR-FRET) assay (LanthaScreen® kinase activity assay, from InVitrogen).
2) The assay is performed in a Black 384-well plate (from Corning). The kinase and the compound was incubated for […] at room temperature. ATP (1 mM) and fluorescein-poly GT were added, and the reaction was incubated for […]. Detection agent SA-XL665 (from Cisbio Assay) and TK Ab-Cryptate detection antibody (from InVitrogen) were added to stop the reaction.
3) The 384-well plate was sealed and incubated for 1 hour. The fluorescence was then measured at […] (Cryptate) and 665 nM (XL655) wavelength.
4) Each concentration of compound was done in triplicate, and vehicle (without compound) and a positive control were used.
Data process: the ratio of fluorescence is calculated (value of fluorescence 665 nM over […]). The results are calculated from: signal=compound fluorescence ratio−vehicle ratio, and the IC50 was calculated based on inhibition curve.

[2] = system: Human breast cancer BT474 cells; assay: Cell proliferation inhibition assay for BT474 (CCK-8); format: cell-based; conditions: BT-474, 72 h, text calls it EC50
Experimental: 1) Human breast cancer BT474 cells were plated 10000 cells/well in a 96-well clear tissue culture plate. The cells were incubated for 24 h at 37° C. to allow adherence.
2) A serials of concentrations of each compound (ranging from 30 uM to 0.16 nM, 5-fold dilution) in 96-well plate, and incubated for 72 h. Each concentration was tested in triplicate. During the cell proliferation assay, BT474 cells were cultured in the complete cell culture solution (low-glucose DMEM containing 5% FBS, 50 ug/ml gentamicin).
3) The culture medium was removed via aspiration, and the cell viability was detected by CCK-8 cell proliferation kit.
4) The EC50 was calculated based on the proliferation curve.

[3] = system: NCI-N87 xenograft; assay: In vivo efficacy in NCI-N87 xenograft mouse model
Experimental: NCI-N87 cell line was purchased from ATCC (American Type Culture Collection) and was cultured in RPMI1640+10% FBS+1% P/S antibiotics.
Male Balb/c nude mice, 6-8 week, 18±2 g (supplier: Shanghai SLAC Laboratory Animal Co. Ltd.) were used for the experiment. The purchased mice were adapted to the environment for 7 days before use, and were housed at 22-25° C. with humidity 40-70%, and light cycle with fluorescent light for 12-hour light (8:00-20:00) 12-hour dark. The mice have free access to food and water.
The cancer cells (NCI-N87) were implanted subcutaneous into the nude mice (right flank) with 5.0×10^6 cells in 0.1 ml PBS (50 mice). When the tumor size reaches a volume of 200 (150-200) mm^3, the tumor-bearing nude mice were randomly assigned into groups (10 mice/group), one group was served as vehicle, one group was administrated with Lapatinib ditosylate monoydrate (80 mg/kg, free base of Lapatinib, not salt, p.o. bid). The other two groups were administrated with NT112 (15 and 30 mg/kg, p.o. q.d, respectively). The administration period lasted for 4 weeks.
The mice were monitored twice daily for appearance and behavior, and for signs of morbidity and/or mortality. The tumor volume was measured twice a week, and the body weight was measured immediately before measuring the tumor volume throughout the whole study.
At end of the experiment (compound administration for four weeks), all the tumor-bearing mice were sacrificed by cervical dislocation under deep anesthesia. The tumor mass was resected, and weighed.
Tumor sizes were measured twice weekly in two dimensions using a caliper, and the volume was expressed in mm^3 using the formula: V=½×a×b^2 where a and b are the long and short diameters of the tumor, respectively. The tumor mass was weighed at the end of the experiment after harvested. V=½×a×b^2 (a, b is maximum and minimum diameters respectively). RTV(Relative Tumor Volume)=Vt/Vo • Vo is the tumor volume when the test article is initial administrated • Vt is the tumor volume of every measurement day after test article administration T/C(%)=TRTV/CRTV×100% • TRTV: RTV of test article-treatment group; CRTV: RTV of control group Inhibition rate (%)=(average tumor volume of control group−average cancer volume of test article treatment group)/average tumor volume of control group×100%

[4] = Pharmacokinetics studies in mice; format: in vivo, CD-1 mice; conditions: for bioavailability: CD-1, plasma, mouse; for AUC(0-inf) / AUC(0-t) / Cmax / half-life / MRT: CD-1, mouse plasma
Experimental: (§1) The test article each was dissolved in 10% DMSO and 90% of (40% HP-β-CD in deionized water) to yield concentration at 0.4 mg/mL for intravenous administration, and 1 mg/mL for oral administration.
(§2) Method development and plasma samples analysis were performed by Analytical Sciences Division of the Testing Facility by means of LC-MS/MS. The analytical results were confirmed using quality control samples for intra-assay variation (within day variation). The accuracy of >66% of the quality control samples was between 80-120% of the known value(s).
Each group is consisted 30 CD-1 mice (supplied by Sino-British SIPPR/BK Lab. Animal Ltd., Co, Shanghai), 5-8 week old, 20-28 g body weight. The test articles were administered by a single bolus intravenous injection or via oral gavage.
Any animals in poor health were identified for further monitoring or possible euthanasia.
Blood samples (at least 300 μL/sample) were collected via cardiac puncture after euthanasia by carbon dioxide inhalation at appropriate time points for determination of the plasma concentrations of the test article. Samples were placed in tubes containing K3-EDTA and stored on ice until centrifuged.
Three mice in each group were used for blood collection at each of the 10 time points (Groups 1-10): Pre-dose and post-dose at 5 min, 15 min, 30 min, 1 h, 2 h, 4 h, 6 h, 8 h and 24 h.
The PK blood samples were centrifuged at approximately 8000 rpm for 6 minutes at 2-8° C. and the resulting plasma were separated and stored frozen at approximately −80° C. (following separation, the plasma may be initially placed on ice prior to being stored in the −80° C. freezer). All the plasma samples were labeled with detailed information such as study number, animal number, matrix, time points of collection and date of collection.
Standard set of parameters including Area Under the Curve (AUC(0-t) and AUC(0-∞)), elimination half-live (T1/2), maximum plasma concentration (Cmax), time to reach maximum plasma concentration (Tmax), clearance (CL), and volume of distribution (Vz) were calculated using noncompartmental analysis modules in FDA certified pharmacokinetic program WinNonlin Professional v5.2 (Pharsight, USA) by the Study Director. Furthermore, the Bioavailability was estimated using the following formula:
• AUC(0-t) Area under the curve from the time of dosing to the last measurable concentration • AUC(0-∞) Area under the curve from the time of dosing extrapolated to infinity, based on the last observed concentration • CL Total body clearance, CL=Dose/AUC • Cmax Maximum observed concentration, occurring at Tmax • F Bioavailability • MRT(0-∞) Mean residence time from the time of dosing to infinity • Tmax Time of maximum observed concentration • T1/2 Terminal half-life=ln(2)λz • Vz Volume of distribution based on the terminal phase

[5] = Pharmacokinetics studies in rats; format: in vivo, Sprauge Dawley rats; conditions: for bioavailability / AUC(0-inf) / AUC(0-t) / Cmax / clearance / half-life / Vd: male, Sprague-Dawley; for bioavailability: plasma, rat; for AUC(0-inf) / AUC(0-t) / Cmax / clearance / half-life / Vd / CL / Vz: rat plasma; for Vd: read-out: Vz
Experimental: as §1, §2
Each group consisted 3 male Sprauge Dawley rats (7-8 week old, 200-300 g body weight). The test articles were administered by a single bolus intravenous injection via the lateral tail vein or via oral gavage.
Blood samples (approximately 300 μl) were collected via retro-orbital puncture after anaesthesia using mixed gas (CO2:O2=7:3) into tubes containing EDTA-K3 anticoagulant at appropriate time points. 10 time points (Groups 1-2): Pre-dose and post-dose at 5 min, 15 min, 30 min, 1 h, 2 h, 4 h, 6 h, 8 h and 24 h.
The PK blood samples were processed and analyzed using the same methods as in Example 10.

Sequence of ErbB2 (HER2) (P04626 23-1255): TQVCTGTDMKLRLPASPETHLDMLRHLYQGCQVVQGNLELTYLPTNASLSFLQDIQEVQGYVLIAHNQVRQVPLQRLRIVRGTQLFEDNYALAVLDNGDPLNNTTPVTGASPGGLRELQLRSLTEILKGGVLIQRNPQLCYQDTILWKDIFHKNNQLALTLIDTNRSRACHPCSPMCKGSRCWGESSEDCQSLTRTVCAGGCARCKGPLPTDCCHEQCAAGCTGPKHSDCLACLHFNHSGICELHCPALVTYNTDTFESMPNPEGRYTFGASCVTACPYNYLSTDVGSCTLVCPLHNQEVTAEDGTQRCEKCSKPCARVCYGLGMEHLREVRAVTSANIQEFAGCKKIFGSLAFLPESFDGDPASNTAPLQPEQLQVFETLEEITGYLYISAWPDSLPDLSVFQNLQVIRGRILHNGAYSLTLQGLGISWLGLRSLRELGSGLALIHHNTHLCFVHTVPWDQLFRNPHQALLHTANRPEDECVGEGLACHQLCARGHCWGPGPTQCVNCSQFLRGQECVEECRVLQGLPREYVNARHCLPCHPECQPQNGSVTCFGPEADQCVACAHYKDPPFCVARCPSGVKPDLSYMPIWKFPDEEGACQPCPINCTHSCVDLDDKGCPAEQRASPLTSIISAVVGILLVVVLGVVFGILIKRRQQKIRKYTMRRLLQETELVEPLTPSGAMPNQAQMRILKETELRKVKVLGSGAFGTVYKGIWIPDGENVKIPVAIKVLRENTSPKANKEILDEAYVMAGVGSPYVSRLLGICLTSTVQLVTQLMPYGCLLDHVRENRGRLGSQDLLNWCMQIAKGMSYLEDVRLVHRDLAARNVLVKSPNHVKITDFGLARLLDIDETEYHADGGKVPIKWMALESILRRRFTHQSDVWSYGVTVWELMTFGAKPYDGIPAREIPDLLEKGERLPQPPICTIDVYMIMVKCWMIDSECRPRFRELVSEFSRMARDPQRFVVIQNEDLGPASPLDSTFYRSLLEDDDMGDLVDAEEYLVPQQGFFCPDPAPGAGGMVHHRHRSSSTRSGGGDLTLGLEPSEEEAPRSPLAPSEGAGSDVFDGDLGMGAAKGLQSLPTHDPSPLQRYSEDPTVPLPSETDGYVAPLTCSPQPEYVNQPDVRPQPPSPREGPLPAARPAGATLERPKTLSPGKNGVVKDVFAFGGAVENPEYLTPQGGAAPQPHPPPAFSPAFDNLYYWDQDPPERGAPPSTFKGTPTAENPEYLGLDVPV

CN(C)C/C=C/C(=O)Nc1cc2c(Nc3ccc(F)c(Cl)c3)ncnc2cc1OCC1C2COCC21 (stereo not drawn) [Example 2, (E)-N-(7-((3-oxa-bicyclo[3.1.0]hexan-6-yl)methoxy)-4-(3-chloro-4-fluorophenylamino)quinazolin-6-yl)-4-(dimethylamino)but-2-enamide]
pIC50 [1]: 8.22 | pIC50 [2]: 7.72

CN(C)C/C=C/C(=O)Nc1cc2c(Nc3ccc(F)c(Cl)c3)ncnc2cc1OC[C@H]1[C@@H]2COC[C@@H]21 [NT112]
side effect ([3]; 15 mg/kg po qd, 4 weeks): without predefined side effect | body weight change ([3]; 30 mg/kg p.o. qd, 7 days/week, onset day 3, maximal day 11, dosing stopped, recovered by day 28): led to body weight loss | RTV T/C ([3]; day 7, 15 mg/kg po qd): < 30% | tumor growth inhibition ([3]; day 7, 15 mg/kg po qd): > 70% | RTV T/C ([3]; day 7, 30 mg/kg po qd): < 30% | tumor growth inhibition ([3]; day 7, 30 mg/kg po qd): > 70% | bioavailability ([4]; IV 1 mg/Kg (reference)): 100% | bioavailability ([4]; PO 5 mg/Kg): 49.7% | AUC(0-inf) ([4]; IV 1 mg/Kg): 592 ng·h/mL | AUC(0-t) ([4]; IV 1 mg/Kg): 575 ng·h/mL | Cmax ([4]; IV 1 mg/Kg): 236 ng/mL | half-life ([4]; IV 1 mg/Kg): 4.44 h | AUC(0-inf) ([4]; PO 5 mg/Kg): 1470 ng·h/mL | AUC(0-t) ([4]; PO 5 mg/Kg): 1420 ng·h/mL | Cmax ([4]; PO 5 mg/Kg): 272 ng/mL | half-life ([4]; PO 5 mg/Kg): 11.1 h | bioavailability ([5]; IV 1 mg/Kg (reference)): 100% | bioavailability ([5]; po, 5 mg/kg): 68% | AUC(0-inf) ([5]; IV 1 mg/Kg): 248 ng·h/mL | AUC(0-t) ([5]; IV 1 mg/Kg): 220 ng·h/mL | Cmax ([5]; IV 1 mg/Kg): 59.3 ng/mL | clearance ([5]; IV 1 mg/Kg): 67.2 mL/min/kg | half-life ([5]; IV 1 mg/Kg): 6.05 h | Vd ([5]; IV 1 mg/Kg): 10.6 L/kg | AUC(0-inf) ([5]; PO 5 mg/Kg): 843 ng·h/mL | AUC(0-t) ([5]; PO 5 mg/Kg): 434 ng·h/mL | Cmax ([5]; PO 5 mg/Kg): 74.9 ng/mL | half-life ([5]; PO 5 mg/Kg): 20 h | exposure and oral bioavailability with oral administration, compared to afatinib ([5]; oral administration): higher exposure and better oral bioavailability | CL ([5]; PO 5 mg/Kg): 98.8 mL/min/kg | Vz ([5]; PO 5 mg/Kg): 51.55 L/kg

CS(=O)(=O)CCNCc1ccc(-c2ccc3ncnc(Nc4ccc(OCc5cccc(F)c5)c(Cl)c4)c3c2)o1 [Lapatinib, reference compound]
RTV T/C ([3]; day 7, 80 mg/kg p.o. bid): 31% | tumor growth inhibition rate ([3]; day 7, 80 mg/kg p.o. bid): 69% | tumor inhibition rate ([3]; day 28 (last day of the study), 80 mg/kg p.o. bid): 92.9%

CN(C)C/C=C/C(=O)Nc1cc2c(Nc3ccc(F)c(Cl)c3)ncnc2cc1OC[C@@]12COC[C@@H]1C2 [Example 4, (E)-N-(7-(((1R,5R)-3-oxa-bicyclo[3.1.0]hexan-1-yl)methoxy)-4-(3-chloro-4-fluorophenylamino)quinazolin-6-yl)-4-(dimethylamino)but-2-enamide]
pIC50 [1]: 7.66 | pIC50 [2]: 7.59

CN(C)C/C=C/C(=O)Nc1cc2c(Nc3ccc(F)c(Cl)c3)ncnc2cc1O[C@H]1CCOC1 [afatinib, reference compound]
bioavailability ([4]; IV 1 mg/Kg (reference)): 100% | bioavailability ([4]; PO 5 mg/Kg): 62% | AUC(0-t) ([4]; IV 1 mg/Kg): 54 ng·h/mL | Cmax ([4]; IV 1 mg/Kg): 109 ng/mL | MRT ([4]; IV 1 mg/Kg): 1.6 h | AUC(0-t) ([4]; PO 5 mg/Kg): 167 ng·h/mL | Cmax ([4]; PO 5 mg/Kg): 17.6 ng/mL | MRT ([4]; PO 5 mg/Kg): 9.3 h | bioavailability ([5]; IV 1 mg/Kg (reference)): 100% | bioavailability ([5]; po, 5 mg/kg): 44.7% | AUC(0-inf) ([5]; IV 1 mg/Kg): 147 ng·h/mL | AUC(0-t) ([5]; IV 1 mg/Kg): 137 ng·h/mL | Cmax ([5]; IV 1 mg/Kg): 55.6 ng/mL | clearance ([5]; IV 1 mg/Kg): 114 mL/min/kg | half-life ([5]; IV 1 mg/Kg): 5.12 h | Vd ([5]; IV 1 mg/Kg): 15.2 L/kg | AUC(0-inf) ([5]; PO 5 mg/Kg): 328 ng·h/mL | AUC(0-t) ([5]; PO 5 mg/Kg): 215 ng·h/mL | Cmax ([5]; PO 5 mg/Kg): 49.2 ng/mL | half-life ([5]; PO 5 mg/Kg): 11 h | CL ([5]; PO 5 mg/Kg): 254.3 mL/min/kg | Vz ([5]; PO 5 mg/Kg): 73.02 L/kg

CO[C@@H]1CO[C@@H]2[C@H]1OC[C@@H]2Oc1cc2ncnc(Nc3ccc(F)c(Cl)c3)c2cc1NC(=O)/C=C/CN(C)C [Example 1, (E)-N-(7-((3R,3aS,6S,6aS)-hexahydro-3-methoxyfuro[3,2-b]furan-6-yloxy)-4-(3-chloro-4-fluorophenylamino)quinazolin-6-yl)-4-(dimethylamino)but-2-enamide]
pIC50 [1]: 7.60 | pIC50 [2]: 7.44

CN(C)C/C=C/C(=O)Nc1cc2c(Nc3ccc(F)c(Cl)c3)ncnc2cc1OC[C@]12COC[C@H]1C2 [Example 3, (E)-N-(7-(((1S,5S)-3-oxa-bicyclo[3.1.0]hexan-1-yl)methoxy)-4-(3-chloro-4-fluorophenylamino)quinazolin-6-yl)-4-(dimethylamino)but-2-enamide]
pIC50 [1]: 7.64 | pIC50 [2]: 7.50

CN(C)C/C=C/C(=O)Nc1cc2c(Nc3ccc(F)c(Cl)c3)ncnc2cc1OCC12COCC1C2 (stereo not drawn) [Example 5, (E)-N-(7-((3-oxa-bicyclo[3.1.0]hexan-1-yl)methoxy)-4-(3-chloro-4-fluorophenylamino)quinazolin-6-yl)-4-(dimethylamino)but-2-enamide]
pIC50 [1]: 7.04 | pIC50 [2]: 6.80
